# Data published in patent US20060281695A1, “Control of parasites in animals by N-[(phenyloxy)phenyl]-1,1,1-trifluoromethanesulfonamide and N-[(phenylsulfanyl)phenyl]-1,1,1-trifluoromethanesulfonamide derivatives” (priority 2005, published 2006).
# Tested on: cat flea (Ctenocephalides felis)
# Assay: Ctenocephalides felis adulticide assay: single dose screen on treated glass surface (% mortality at 1.26 μg/cm^2, 24 hours)
# Type: in vivo
# Conditions: Ctenocephalides felis, 24 h, read-out: Ctenocephalides felis Mortality (%) 24 h
# Procedure: The LC50 value is the concentration, expressed as μg/cm^2, that was required to kill 50% of the sample of cat fleas on contact with the tested compound. Certain tests are also reported as the percent of a sample of cat fleas that were killed at a concentration of 1.26 μg/cm^2 (“% mortality”), for the compounds tested in this way.
# b) Ctenocephalides felis Adulticide Assay: C.felis single dose screen
# Mortality of fleas is the primary endpoint in the assay. […] The concentration chosen (1.26 μg/cm^2) is higher than that known to kill 90% of cat fleas (LC90) using the reference compound, permethrin.
# The test species employed was the cat flea (Ctenocephalides felis). The strain used was obtained from external suppliers as pupae and held in the laboratory under testing conditions until the adults had emerged. Fifteen (15) fleas were used in a minimum of four replicates against a single concentration level (approximately 60 fleas). The insects were selected to be in the adult life stage, aged between 3 and 7 days post emergence.
# The compounds to be tested were supplied as solids and were prepared in acetone as described below prior to testing. Samples were stored in a refrigerator (5±1° C.) unless otherwise specified.
# During the mortality testing, the temperature was maintained at 25±1° C. Humidity was maintained at 75±5%. The base (area=159 mm^2) of a 100 mL glass Erlenmeyer (conical) flask provided the treatment surface. Flasks were pre-treated with Coatasil™ glass treatment to maximise bio-availability of test compounds by preventing them from binding to glass the surface. The base of the 100 mL Erlenmeyer flask was treated with 0.5 mL of test sample in acetone and gently swirled. This volume was sufficient to cover the base of the flask. Flasks were left to dry for 24 hours before flea exposure.
# Adult cat fleas were placed into a sorting chamber, which allowed fleas to jump into the Erlenmeyer flasks. Fifteen (15) adult cat fleas were collected in each flask. The top of the flasks were then covered in Parafilm™ and small holes were made to allow gas exchange. A 0.5 mL volume of acetone as a solvent control was applied to the base of an Erlenmeyer flask and the testing proceeded in the same manner described above. […] Pooled 24 hour mortality data were converted to percentages and are summarized by Table 4, below.
# In Table 7, provided below, are listed the Haemonchus contortus LD99 values (measured in micrograms/mL), the Ctenocephalides felis rapid screening values (measured in % mortality), the Ctenocephalides felis LC50 values (measured in micrograms/cm^2) and the Rhipicephalus sanguineus rapid screening values (measured in % mortality) for selected compounds in accordance with the present invention.
row,Compound,"mortality at 1.26 µg/cm2, 1.26 µg/cm2 [%]"
1,"O=S(=O)(Nc1ccc(Cl)cc1Nc1ccc(Cl)cc1)C(F)(F)F [Compound 91, N-[4-Chloro-2-(4-chlorophenylamino)-phenyl]-1,1,1-trifluoromethanesulphonamide]",13
2,"O=S(=O)(Nc1ccc(Oc2ccc(Cl)cc2Cl)c(Cl)c1)C(F)(F)F [Compound p7, N-[3-Chloro-4-(2,4-dichlorophenoxy)phenyl]-1,1,1-trifluoromethanesulfonamide]",22
3,"O=S(=O)(Nc1ccc(Cl)cc1Oc1ccccc1-c1ccccc1)C(F)(F)F [Compound 74, N-[2-(Biphenyl-2-yloxy)-4-chlorophenyl]-1,1,1-trifluoromethanesulfonamide]",81
4,"O=S(=O)(N(Cc1ccccc1)c1ccc(Cl)cc1Oc1ccc(Cl)cc1Cl)C(F)(F)F [Compound 92, N-benzyl-N-[4-chloro-2-(2,4-dichlorophenoxy)phenyl]-1,1,1-trifluoromethanesulfonamide]",57
5,"CCOCN(c1cccc(Oc2ccc(Cl)cc2Cl)c1)S(=O)(=O)C(F)(F)F [Compound m7, N-Ethoxymethyl-N-[3-(2,4-dichlorophenoxy)phenyl]-1,1,1-trifluoromethanesulfonamide]",5

# Same assay, conditions: in vivo
row,Compound,Ctenocephalides felis Mortality (%) 24 h [%]
1,CN(c1cccc(Oc2ccccc2)c1)S(=O)(=O)C(F)(F)F [m2],88
2,CCCC(=O)OCN(c1ccc(Cl)cc1Oc1ccccc1F)S(=O)(=O)C(F)(F)F [Compound 89],6
3,O=S(=O)(Nc1cc(C(F)(F)F)ccc1Sc1ccc(Br)cc1)C(F)(F)F [Compound 67],5
4,O=S(=O)(Nc1ccc(Cl)cc1Oc1ccccc1)C(F)(F)F [Compound 40],39
5,CC(C)(C)C(=O)OCN(c1ccc(Cl)cc1Oc1ccccc1F)S(=O)(=O)C(F)(F)F [Compound 88],73
6,N#Cc1ccc(NS(=O)(=O)C(F)(F)F)c(Oc2ccc(Cl)cc2Cl)c1 [Compound 52],23
7,N#Cc1ccc(NS(=O)(=O)C(F)(F)F)c(Oc2ccc(Cl)cc2)c1 [Compound 51],10
8,CN(c1ccc(Oc2ccccc2)cc1)S(=O)(=O)C(F)(F)F [p2],64
9,N#Cc1ccc(Oc2cc(Cl)ccc2NS(=O)(=O)C(F)(F)F)cc1 [Compound 56],6
10,O=S(=O)(Nc1ccc(Oc2ccccc2)cc1)C(F)(F)F [p1],84
11,O=S(=O)(Nc1ccc(Oc2ccc(Cl)cc2Cl)c(F)c1)C(F)(F)F [p8],4
12,CCOCN(c1ccc(Cl)cc1Oc1ccccc1F)S(=O)(=O)C(F)(F)F [Compound 80],9
13,O=S(=O)(Nc1ccc(Cl)cc1Oc1cc(Cl)ccc1Cl)C(F)(F)F [Compound 69],58
14,"O=S(=O)(Nc1ccc(Cl)cc1[S+]([O-])c1ccc(Cl)cc1)C(F)(F)F (stereo not drawn) [Compound 23, N-[4-chloro-2-(4-(chlorophenyl)sulfinyl)phenyl]-1,1,1-trifluoromethanesulfonamide]",3
15,N#Cc1ccc(NS(=O)(=O)C(F)(F)F)c(Oc2cccc(C(F)(F)F)c2)c1 [Compound 60],5
16,O=S(=O)(Nc1cc(C(F)(F)F)ccc1Sc1ccccc1Cl)C(F)(F)F [Compound 64],14
17,N#Cc1ccc(NS(=O)(=O)C(F)(F)F)c(Oc2ccccc2F)c1 [Compound 53],9
18,O=S(=O)(Nc1ccc(Oc2ccc(Cl)cc2Cl)c(C(F)(F)F)c1)C(F)(F)F [p9],44
19,CCN(c1ccc(Cl)cc1Oc1ccccc1F)S(=O)(=O)C(F)(F)F [Compound 78],80
20,COCN(c1ccc(Cl)cc1Oc1ccccc1F)S(=O)(=O)C(F)(F)F [Compound 79],60
21,CCOCN(c1ccc(Oc2ccccc2)cc1)S(=O)(=O)C(F)(F)F [p3],72
22,CN(c1ccc(Cl)cc1Oc1ccccc1F)S(=O)(=O)C(F)(F)F [Compound 77],20

row,Compound,Ctenocephalides felis Mortality (%) 24 h [%]
1,CC(C)(C)C(=O)OCN(c1cccc(Oc2ccccc2)c1)S(=O)(=O)C(F)(F)F [m5],72
2,CC(C)(C)C(=O)OCN(c1ccc(Oc2ccccc2)cc1)S(=O)(=O)C(F)(F)F [p5],54
3,COCN(c1ccc(Oc2ccccc2)cc1)S(=O)(=O)C(F)(F)F [p4],49
4,Cc1ccccc1Oc1cc(C#N)ccc1NS(=O)(=O)C(F)(F)F [Compound 54],5
5,O=S(=O)(Nc1cc(C(F)(F)F)ccc1Sc1ccccc1)C(F)(F)F [Compound 63],10
6,N#Cc1cccc(Oc2cc(Cl)ccc2NS(=O)(=O)C(F)(F)F)c1 [Compound 50],14
7,"O=S(=O)(Nc1cccc(Oc2ccc(Cl)cc2Cl)c1)C(F)(F)F [Compound m6, N-[3-(2,4-dichlorophenoxy)phenyl]-1,1,1-trifuoromethanesulfonamide]",34
8,O=S(=O)(Nc1ccc(Oc2ccc(Cl)cc2Cl)cc1C(F)(F)F)C(F)(F)F [p6],28
9,CC(C)N(c1ccc(Cl)cc1Oc1ccc(Cl)cc1Cl)S(=O)(=O)C(F)(F)F [Compound 86],66
10,COc1cccc(Oc2cc(Cl)ccc2NS(=O)(=O)C(F)(F)F)c1 [Compound 58],87
11,O=S(=O)(Nc1cc(C(F)(F)F)ccc1Sc1ccc(F)cc1)C(F)(F)F [Compound 65],21
12,O=S(=O)(Nc1ccc(Cl)cc1Sc1ccccc1Cl)C(F)(F)F [Compound 62],25
13,N#Cc1ccc(NS(=O)(=O)C(F)(F)F)c(Oc2ccc(F)c(F)c2)c1 [Compound 57],2
14,O=S(=O)(Nc1ccc(Cl)cc1Oc1ccc(Oc2ccccc2)cc1)C(F)(F)F [Compound 47],36
15,CCN(c1ccc(Cl)cc1Oc1ccc(Cl)cc1Cl)S(=O)(=O)C(F)(F)F [Compound 76],3
16,O=S(=O)(Nc1cc(C(F)(F)F)ccc1Sc1ccccc1F)C(F)(F)F [Compound 66],20
17,COc1ccc(Oc2cc(Cl)ccc2NS(=O)(=O)C(F)(F)F)cc1 [Compound 49],24
18,CC(C)c1ccccc1Oc1cc(Cl)ccc1NS(=O)(=O)C(F)(F)F [Compound 39],75
19,O=S(=O)(N(Cc1ccccc1)c1ccc(Cl)cc1Oc1ccccc1F)C(F)(F)F [Compound 81],1
20,CC(C)N(c1ccc(Cl)cc1Oc1ccccc1F)S(=O)(=O)C(F)(F)F [Compound 87],24
21,CC(C)(C)c1ccccc1Oc1cc(Cl)ccc1NS(=O)(=O)C(F)(F)F [Compound 42],88
